Assay results taken from US20050209271A1, “Form of renzapride hydrochloride hydrate and uses thereof” (priority 2003, published 2005).

Key:
Assay type in all cases: physicochemical
[1] = Particle size distribution; conditions: 5 kg batch
Procedure: The Particle Size Distribution (PDS) of renzapride is measured according to the method detailed below. [table] • Vibration feed rate: 40% • Air pressure: 3.5 Bar Single measurement of each batch performed in triplicate.

[2] = Intrinsic dissolution rate (IDR) of compressed discs in a static dissolution system
Procedure: The samples were prepared as discs. Each disc was prepared by compressing the sample for 5 minutes at 2 tons of pressure. Each disc was transferred to a static dissolution system, whereby one surface of the disc is exposed to the dissolution medium. Six discs were prepared from each batch of material for duplicate intrinsic dissolution rate (IDR) determinations at pHs 2.2, 4.0 and 7.0. Dissolution samples (0.8 ml) were withdrawn at 5 minute intervals up to 60 minutes and samples were analysed. The amount of drug released (mg) is divided by the surface area of the disc (0.5 cm^2) to obtain an amount per unit area (mg cm^−2). The average of the duplicate determinations is plotted as a function of time (minutes). The IDR (mg cm^−2 minutes^−1) is given by the gradient (determined by linear regression) over the linear range of the release profile. When the dissolution into solution is deemed independent of pH, a pH independent IDR is calculated. The pH independent IDR is calculated by averaging the data for each time point at all of the pHs studied and calculating the linear regression on at least the first 5 data points. All IDR values are reported with the error encompassing the upper and lower 95% confidence limits of the linear regression. Linear regression analysis of the IDR data used all of the data points, as the release profiles are linear.

[3] = Storage stability at 25° C./60% relative humidity; conditions: 25° C./60% RH
Procedure: Samples of Form II renzapride hydrochloride hydrate were placed in storage under conditions of 25° C./60% relative humidity.

[4] = Dynamic vapour sorption (DVS), adsorption/desorption cycles between 0 and 90% RH
Description: Each sample was placed into a sample pan and loaded into the DVS system. An initial weight reading was taken. The sample was then exposed to an atmosphere with a relative humidity (RH) of 0% to dry the sample and a dry weight reading taken. The sample was exposed to an adsorption/desorption cycle between 0 and 90% RH in 10% RH intervals. The change in weight data was fitted to an exponential expression that was used to automatically determine the end point of each stage, which then triggers the next increase/decrease in relative humidity. For the DVS traces, the stepped lines represent the relative humidity (RH) level in the Chamber. The curved line represents the weight change in the sample. The RH was controlled automatically and changes once the rate of change in weight of the sample is small.

COc1cc(N)c(Cl)cc1C(=O)NC1CCN2CCCC1C2.Cl (centres unmarked) [Form II, renzapride hydrochloride hydrate]
Span = (d(0.9) − d(0.1))/d(0.5) [1]: 2.1 | d (0.1) [1]: 11.5 μm | d(0.5) [1]: 47.1 μm | d(0.9) [1]: 109.0 μm | IDR independent (pH independent IDR) ([2]; data averaged over all pHs studied, error = 95% confidence limits): 5.7 ± 0.3 mg/min/cm^2 | IDR pH 2.2 ([2]; pH 2.2, error = 95% confidence limits of linear regression): 5.5 ± 0.2 mg/min/cm^2 | IDR pH 4.0 ([2]; pH 4.0, error = 95% confidence limits of linear regression): 5.7 ± 0.2 mg/min/cm^2 | IDR pH 7.0 ([2]; pH 7.0, error = 95% confidence limits of linear regression): 5.9 ± 0.3 mg/min/cm^2 | Description ([3]; t = 0 months): White | Water content (by Karl Fisher) ([3]; t = 0 months): 8.9%(w/w) | Description ([3]; t = 6 months): White | Water content (by Karl Fisher) ([3]; t = 6 months): 8.6%(w/w) | Description ([3]; t = 12 months): White | Water content (by Karl Fisher) ([3]; t = 12 months): 8.8%(w/w) | Description ([3]; t = 18 months): White | Water content (by Karl Fisher) ([3]; t = 18 months): 8.8%(w/w) | Description ([3]; t = 24 months): White | Water content (by Karl Fisher) ([3]; t = 24 months): 8.8%(w/w) | moisture taken up at 90% RH (DVS) ([4]; chamber at 90% RH): ~9.5 % (w/w) | uptake in moisture at 10% RH (DVS) ([4]; exposure to 10% RH, initial uptake): ca. 9 % (w/w)
